The results in this text go back to publication PMC2865816, “Synthesis and Antiviral Studies of Novel N-Sulphonamidomethyl piperazinyl Fluoroquinolones” (Indian Journal of Pharmaceutical Sciences, 2009).

The subject of data set [1] is influenza A (H1N1). Nature of the data set: microbe, parasite or virus in culture. As to conditions: strain A(H1N1), MDCK cells; for EC50: Influenza A virus, CPE inhibition, neutral red, read-out: EC50, 50% effective (virus-inhibitory) concentration. Type of data set: cell-based.
The subject of data set [2] is influenza A (H3N2). Nature of the data set: microbe, parasite or virus in culture. The data set is classed as cell-based. To be noted: for EC50: Influenza A virus, H3N2, MDCK, read-out: EC50, 50% effective (virus-inhibitory) concentration; for Selectivity Index (CC50 divided by EC50): strain A(H3N2), MDCK cells.
The subject of data set [3] is influenza A (H5N1). As to the kind of experiment: microbe, parasite or virus in culture. Type of data set: cell-based. As to conditions: for EC50: Influenza A virus, H5N1, MDCK, read-out: EC50, 50% effective (virus-inhibitory) concentration; for Selectivity Index (CC50 divided by EC50): strain A(H5N1), MDCK cells.
Data set [4] has as its system influenza B. Nature of the data set: microbe, parasite or virus in culture. To be noted: strain B, MDCK cells; for EC50: Influenza B virus, CPE inhibition, neutral red, read-out: EC50, 50% effective (virus-inhibitory) concentration. Type of data set: cell-based.
Data set [5] concerns HIV-1 (IIIB). Nature of the data set: Inhibition of HIV-1 (IIIB) induced cytopathic effect in MT-4 cells, MTT. The data set is classed as cell-based. As to conditions: for pEC50: MTT, 5 d, read-out: EC50, concentration achieving 50% protection of MT-4 cells against the cytopathic effect of HIV. For orientation: Protection from cytopathic effect is a common read-out in antiviral testing.

Data set [6] is described as follows: Cytotoxicity against mock-infected MT-4 cells, MTT. The data set is classed as cell-based. To be noted: human; mock-infected MT-4 cells, MTT; read-out: CC50, concentration required to reduce the viability of mock-infected MT-4 cells by 50%. Here is the method:
(§1) Compounds were tested for their inhibitory effects against replication of HIV-1 (IIIB) in MT-4 cells[1011]. The MT-4 cells were grown and maintained in RPMI 1640 DM medium supplemented with 10% (v/v) heat-inactivated fetal calf serum (FCS), 2 mM-glutamine, 0.1% sodium bicarbonate and 20 μg/ml gentamicin (culture medium). Inhibitory effect of test compounds on HIV-1 replications was monitored by inhibition of virus-induced cytopathic effect in MT-4 cells and was estimated by MTT assay. Briefly, 50 μl of HIV-1 (100-300 CCID50) were added to a flat-bottomed microtiter tray with 50 μl of medium containing various concentrations of compounds. MT-4 cells were added at a final concentration of 6×10^5 cells/ml. After 5 d of incubation at 37°, the number of viable cells were determined by the 3-(4,5-dimethylthiazol-2-yl)-2,5-diphenyl tetrazolium bromide (MTT) method. Cytotoxicity of test compounds against mock-infected MT-4 cells was also assessed by the MTT method. AntiHIV activity and cytotoxicity of standard AZT were also performed by a similar method in MT-4 cells.

A short description of data set [7]: in vitro. As to conditions: dog.
Data set [8] relates to influenza A and B viruses. Nature of the data set: microbe, parasite or virus in culture. The data set is classed as cell-based. As to conditions: MDCK, read-out: concentration inhibiting the replication of influenza A and B viruses.
Data set [9] relates to mock-infected MT-4 cells. As to the kind of experiment: Cytotoxicity against mock-infected MT-4 cells, MTT. The data set is classed as cell-based. Here is the method:
as §1

Where [10] appears, read: Human immunodeficiency virus 1, MT4, 120 h.

pEC50: −log10 of the molar value. Converted amounts (≈) assume the structure as drawn. Where two headings read alike, the source gives them in different places.

For the molecule `COc1c(N2CCN(CNc3ccc(S(N)(=O)=O)cc3)CC2)c(F)cc2c(=O)c(C(=O)O)cn(C3CC3)c12` [GF-SA], the EC50 in [1] was > 100 µg/mL; in data set [2], > 100 µg/mL; in data set [3] it was 32 µg/mL (≈ 58.7 µM); in data set [4] it was 36 µg/mL (≈ 66 µM). The “Selectivity Index (CC50 divided by EC50)” value in data set [3] and in data set [4] was >3 throughout. The pEC50 in [5] (setting [10]) was < 4.23. Also, the CC50 at 5 d in data set [6] came out at 58.7 µM. Further, in [7], the CC50 is > 100 µg/mL.

On to `CCn1cc(C(=O)O)c(=O)c2cc(F)c(N3CCN(CNc4ccc(S(=O)(=O)Nc5nc(C)cc(C)n5)cc4)CC3)cc21` [NF-SDM], for which the pEC50 in data set [5] (setting [10]) was < 4.25. Besides, the CC50 at 5 d in [6] came out at 56.3 µM.

As for `CCn1cc(C(=O)O)c(=O)c2cc(F)c(N3CCN(CNc4ccc(S(N)(=O)=O)cc4)CC3)cc21` [NF-SA], the EC50 is > 100 µg/mL in data set [1], > 100 µg/mL in data set [2], > 100 µg/mL in data set [3] and 80 µg/mL (≈ 159 µM) in data set [4]. The “Selectivity Index (CC50 divided by EC50)” value in data set [4] is listed as >1.3. Also, the pEC50 in data set [5] (setting [10]) is < 4.12. The CC50 at 5 d in data set [6] is 75.5 µM. Besides, the CC50 in [7] is > 100 µg/mL.

In the case of `NC(=O)c1ncn([C@@H]2O[C@H](CO)[C@@H](O)[C@H]2O)n1` [Ribavirin, ribavirin, reference compound], the EC50 in [1] is 3.7 µg/mL (≈ 15.2 µM); in [2] it was 5.9 µg/mL (≈ 24.2 µM); in data set [3] it was 4.3 µg/mL (≈ 17.6 µM); in [4], 5.5 µg/mL (≈ 22.5 µM); in data set [8], 3.7 to 5.9 µg/mL (≈ 15.2 to 24.2 µM). In addition, the “Selectivity Index (CC50 divided by EC50)” value is >27 in data set [1], >17 in data set [2], >23 in data set [3] and >18 in data set [4]. For the same molecule, the CC50 in data set [7] is > 100 µg/mL.

As for `O=C(O)c1cn(C2CC2)c2cc(N3CCN(CNc4ccc(S(=O)(=O)Nc5ncccn5)cc4)CC3)c(F)cc2c1=O` [CF-SD], the EC50 in [1] was found to be 16 µg/mL (≈ 27 µM); in data set [2], 41 µg/mL (≈ 69.1 µM); in data set [3], 33 µg/mL (≈ 55.6 µM); in data set [4] it was 32 µg/mL (≈ 53.9 µM). The “Selectivity Index (CC50 divided by EC50)” value in [1] was >6.1; in data set [3], >3; in data set [4], >3. The pEC50 in [5] (setting [10]) was < 4.13. The CC50 at 5 d in data set [6] stood at 74.1 µM. Also, the CC50 in data set [7] is > 100 µg/mL.

For the molecule `COc1c(N2CCN(CNc3ccc(S(=O)(=O)Nc4ncccn4)cc3)CC2)c(F)cc2c(=O)c(C(=O)O)cn(C3CC3)c12` [GF-SD], the EC50 in data set [1] was 34 µg/mL (≈ 54.5 µM); in [2], 52 µg/mL (≈ 83.4 µM); in data set [3], > 100 µg/mL; in data set [4], 97 µg/mL (≈ 156 µM). The results for the “Selectivity Index (CC50 divided by EC50)” value in data set [1], in data set [2] and in [4] were >3, >1.9 and >1, respectively. Further, the pEC50 in data set [5] (setting [10]) is < 4.15. Further, the CC50 at 5 d in data set [6] came to 70.1 µM. Further, in data set [7], the CC50 is > 100 µg/mL.

Regarding `Cc1cc(C)nc(NS(=O)(=O)c2ccc(NCN3CCN(c4cc5c(cc4F)c(=O)c(C(=O)O)cn5C4CC4)CC3)cc2)n1` [CF-SDM], the EC50 in data set [1] was 18 µg/mL (≈ 29 µM); in [2] it was 30 µg/mL (≈ 48.3 µM); in data set [3], > 100 µg/mL; in [4], 53 µg/mL (≈ 85.3 µM). Further, the “Selectivity Index (CC50 divided by EC50)” value is >5.6 in data set [1], >3.3 in data set [2] and >2 in data set [4]. Moreover, the pEC50 in [5] (setting [10]) was < 4.15. Moreover, in data set [6], the CC50 at 5 d turned out to be 70.8 µM. Also, in data set [7], the CC50 is > 100 µg/mL.

Regarding `Cc1cn([C@H]2C[C@H](N=[N+]=[N-])[C@@H](CO)O2)c(=O)[nH]c1=O` [AZT, reference compound], in data set [5], the “Max Prot” value was 106 and the pEC50 was 8.19. For the same molecule, in data set [9] (mock-infected MT-4 cells, MTT, read-out: CC50, concentration required to reduce the viability of mock-infected MT-4 cells by 50%), the CC50 was 64.5 µM.

In the case of `CCn1cc(C(=O)O)c(=O)c2cc(F)c(N3CCN(CNc4ccc(S(=O)(=O)Nc5ncccn5)cc4)CC3)cc21` [NF-SD], the EC50 is > 100 µg/mL in data set [1], > 100 µg/mL in data set [2], > 32 µg/mL in data set [3] and > 32 µg/mL in data set [4]. Also, the pEC50 in data set [5] (setting [10]) is < 4.17. Also, in data set [6], the CC50 at 5 d is 66.8 µM. Also, the CC50 at 3 d in data set [7] came out at 32 µg/mL (≈ 55 µM).

As for `COc1c(N2CCN(CNc3ccc(S(=O)(=O)Nc4nc(C)cc(C)n4)cc3)CC2)c(F)cc2c(=O)c(C(=O)O)cn(C3CC3)c12` [GF-SDM], the EC50 in [1] was 33 µg/mL (≈ 50.6 µM); in data set [2], 38 µg/mL (≈ 58.3 µM); in [3] it was 19 µg/mL (≈ 29.2 µM); in data set [4] it was 11 µg/mL (≈ 16.9 µM). Also, the “Selectivity Index (CC50 divided by EC50)” value in data set [1] was >3.1; in [2], >2.6; in data set [3], >5; in [4], >9. The pEC50 in data set [5] (setting [10]) is < 4.40. Also, the CC50 at 5 d in [6] amounted to 39.4 µM. The “cytostatic activity in MT-4 cells (in words)” value in [9] (MT-4 cells) is “marked cytostatic activity”. In [7], the CC50 was > 100 µg/mL.
